pIC50: −log10 of the molar value.
Molecular target: factor Xa (Bos taurus, UniProt P00743)
Experiment: kinetic amidolytic
Format: biochemical

Chain of factor Xa (P00743 41-180): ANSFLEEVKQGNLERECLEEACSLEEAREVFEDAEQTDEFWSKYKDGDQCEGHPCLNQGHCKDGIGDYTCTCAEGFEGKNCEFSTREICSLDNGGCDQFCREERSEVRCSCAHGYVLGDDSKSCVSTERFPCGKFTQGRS
Chain of factor Xa (P00743 234-492): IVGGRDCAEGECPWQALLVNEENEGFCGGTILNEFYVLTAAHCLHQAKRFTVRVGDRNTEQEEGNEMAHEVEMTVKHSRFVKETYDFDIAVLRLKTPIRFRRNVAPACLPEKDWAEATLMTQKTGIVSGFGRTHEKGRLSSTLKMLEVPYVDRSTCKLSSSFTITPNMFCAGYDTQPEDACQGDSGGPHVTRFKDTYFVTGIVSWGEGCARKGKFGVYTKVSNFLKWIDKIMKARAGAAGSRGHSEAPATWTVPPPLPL

pIC50: < 5.54
Compound: COc1ccc(NC(=O)c2ccc(C(=N)N(C)C)cc2)c(C(=O)Nc2ccc(Cl)cn2)c1 [betrixaban]

— article PMC6714992 (Clinical and Applied Thrombosis/Hemostasis, 2019)
